In PMC12274840 (The Journal of Biological Chemistry, 2025):
Like-named read-outs stand apart in the source and are kept apart here.

Assays:
[1] = tested on: E. coli KA797 cells carrying pUK21 with NmcA (pelB/Sec); experiment: microbe, parasite or virus in culture; format: cell-based; details: in combination with 25 μg/ml carbenicillin
[2] = tested on: E. coli KA797 cells carrying pUK21 with TEM-1 WT (Sec); experiment: microbe, parasite or virus in culture; format: cell-based; details: in combination with 100 μg/ml carbenicillin
[3] = tested on: E. coli KA797 cells carrying pUK21 with BlaC WT (Tat); experiment: microbe, parasite or virus in culture; format: cell-based; details: in combination with 100 μg/ml carbenicillin
[4] = tested on: E. coli KA797 cells carrying BlaC position 105 library; format: cell-based, Escherichia coli; details: for Fi AVG (average fitness): average of replicates
[5] = tested on: E. coli KA797 cells carrying pUK21 with CTX-M-14 WT (Tat); experiment: microbe, parasite or virus in culture; format: cell-based; details: in combination with 100 μg/ml carbenicillin

In the case of `CC1(C)[C@H](C(=O)O)N2C(=O)C[C@H]2S1(=O)=O` [sulbactam], the MIC of inhibitor [1] is reported as 32 µg/mL, the MIC of inhibitor [2] is reported as 32 µg/mL and the MIC of inhibitor [3] is reported as 4 µg/mL. For the same compound, the “Fi AVG (average fitness)” value ([4]; AA 105 Ala (BlaC I105A), relative to WT Ile) was -0.022, the “Fi AVG (average fitness)” value ([4]; AA 105 Arg (BlaC I105R), relative to WT Ile) was -0.000687 and the “Fi AVG (average fitness)” value ([4]; AA 105 Asn (BlaC I105N), relative to WT Ile) was 0.167. The “Fi AVG (average fitness)” value ([4]; AA 105 Asp (BlaC I105D), relative to WT Ile) was -0.060, the “Fi AVG (average fitness)” value ([4]; AA 105 Cys (BlaC I105C), relative to WT Ile) was -0.004 and the “Fi AVG (average fitness)” value ([4]; AA 105 Gln (BlaC I105Q), relative to WT Ile) was 0.070. The “Fi AVG (average fitness)” value ([4]; AA 105 Glu (BlaC I105E), relative to WT Ile) was 0.009, the “Fi AVG (average fitness)” value ([4]; AA 105 Gly (BlaC I105G), relative to WT Ile) was 0.023 and the “Fi AVG (average fitness)” value ([4]; AA 105 His (BlaC I105H), relative to WT Ile) was 0.133. For the same compound, the “Fi AVG (average fitness)” value ([4]; AA 105 Ile (BlaC WT, reference)) was 0.000, the “Fi AVG (average fitness)” value ([4]; AA 105 Leu (BlaC I105L), relative to WT Ile) was 0.101 and the “Fi AVG (average fitness)” value ([4]; AA 105 Lys (BlaC I105K), relative to WT Ile) was 0.043. For the same compound, the “Fi AVG (average fitness)” value ([4]; AA 105 Met (BlaC I105M), relative to WT Ile) was -0.015, the “Fi AVG (average fitness)” value ([4]; AA 105 Phe (BlaC I105F), relative to WT Ile) was 0.205 and the “Fi AVG (average fitness)” value ([4]; AA 105 Pro (BlaC I105P), relative to WT Ile) was 0.056. The “Fi AVG (average fitness)” value ([4]; AA 105 Ser (BlaC I105S), relative to WT Ile) was 0.083, the “Fi AVG (average fitness)” value ([4]; AA 105 Thr (BlaC I105T), relative to WT Ile) was 0.012 and the “Fi AVG (average fitness)” value ([4]; AA 105 Trp (BlaC I105W), relative to WT Ile) was 0.218. The “Fi AVG (average fitness)” value ([4]; AA 105 Tyr (BlaC I105Y), relative to WT Ile) was 0.087, the “Fi AVG (average fitness)” value ([4]; AA 105 Val (BlaC I105V), relative to WT Ile) was 0.121 and the “WT abs Fi 1” value ([4]; absolute fitness of BlaC WT (Ile 105), replicate 1) was -0.251. For the same compound, the “WT abs Fi 2” value ([4]; absolute fitness of BlaC WT (Ile 105), replicate 2) was 0.228, the “WT abs Fi 3” value ([4]; absolute fitness of BlaC WT (Ile 105), replicate 3) was -0.183 and the MIC of inhibitor [5] was 32 µg/mL.
